Measurements published in the NIST ThermoML archive (doi:10.1016/j.jct.2015.06.005).

Assays:
[1] = xn = mol fraction of the nth substance listed; conditions: 100 kPa, Liquid, x1 = 1; for speed of sound: Frequency=3 MHz, Sing-around technique in a fixed-path interferometer; for mass density: Vibrating tube method
[2] = refractive index (Na D-line) (dimensionless); xn = mol fraction of the nth substance listed; conditions: 100 kPa, Liquid, Standard Abbe refractometry, x1 = 1
[3] = 100 kPa, Liquid; for speed of sound: Frequency=3 MHz, Sing-around technique in a fixed-path interferometer; for mass density: Vibrating tube method
[4] = refractive index (Na D-line) (dimensionless); conditions: 100 kPa, Liquid, Standard Abbe refractometry

CCCCn1cc[n+](C)c1.F[B-](F)(F)F [1-butyl-3-methylimidazolium tetrafluoroborate] + CCCCCCCCN1CCCC1=O
Conditions	mass density, [1] [kg/m3]	refractive index, [2]	speed of sound, [1] [m/s]
298.15 K	1198.78	1.42058	1565.1
303.15 K	1195.18	1.41913	1553.2
308.15 K	1191.6	1.41764	1541.3
313.15 K	1188.04	1.41621	1529.7
318.15 K	1184.5	1.41472	1518.2
323.15 K	1180.98	1.4133	1506.8

CCCCCCCCN1CCCC1=O [N-octyl-2-pyrrolidone]
Conditions	mass density, [3] [kg/m3]	refractive index, [4]	speed of sound, [3] [m/s]
298.15 K	918.45	1.46346	1450.2
303.15 K	914.8	1.46152	1432.6
308.15 K	911.14	1.45955	1415.3
313.15 K	907.49	1.45761	1398
318.15 K	903.83	1.45564	1380.9
323.15 K	900.17	1.45367	1364
